How the values were obtained:
human SGLT2 = target: T1, human SGLT2 (Homo sapiens, UniProt P31639, I433V); assay: Assay for inhibitory effect on human SGLT2 activity (uptake of methyl-α-D-glucopyranoside in COS-7 cells transiently expressing human SGLT2); type: cell-based; conditions: uptake of methyl-α-D-(U-14C)-glucopyranoside, 37° C., 2 hours
T1 construct: expressed in transfected cells; host or cells: COS-7 cells (RIKEN CELL BANK RCB0539), transient electroporation with KL29
T1 sequence (P31639 1-672 I433V): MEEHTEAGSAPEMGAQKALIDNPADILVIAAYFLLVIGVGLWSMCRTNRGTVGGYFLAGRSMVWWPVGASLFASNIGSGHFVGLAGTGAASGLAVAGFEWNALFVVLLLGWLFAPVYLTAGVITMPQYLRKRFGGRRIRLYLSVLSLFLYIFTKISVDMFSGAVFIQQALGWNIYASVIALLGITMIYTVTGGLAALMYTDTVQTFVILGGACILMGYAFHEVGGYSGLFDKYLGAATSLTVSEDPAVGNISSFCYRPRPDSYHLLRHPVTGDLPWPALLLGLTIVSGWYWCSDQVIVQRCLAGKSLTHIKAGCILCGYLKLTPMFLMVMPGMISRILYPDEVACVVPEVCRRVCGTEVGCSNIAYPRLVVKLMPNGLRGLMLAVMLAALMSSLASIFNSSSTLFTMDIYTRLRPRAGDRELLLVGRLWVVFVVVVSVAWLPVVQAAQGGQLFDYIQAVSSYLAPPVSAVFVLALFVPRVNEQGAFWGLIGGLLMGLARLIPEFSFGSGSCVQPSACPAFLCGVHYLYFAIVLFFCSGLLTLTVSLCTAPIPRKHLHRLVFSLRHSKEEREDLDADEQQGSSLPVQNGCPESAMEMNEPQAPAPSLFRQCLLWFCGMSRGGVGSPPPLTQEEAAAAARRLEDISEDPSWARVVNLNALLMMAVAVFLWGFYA
Experimental: Assay for Inhibitory Effect on Human SGLT2 Activity
1) Construction of the Plasmid Vector Expressing Human SGLT2
Preparation of the cDNA library for PCR amplification was performed by reverse transcription of a total RNA deprived from human kidney (Ori gene) with oligo dT as the primer, using […] Preamplification System (Gibco-BRL: LIFE TECHNOLOGIES). The DNA fragment coding for human SGLT2 was amplified by the PCR reaction, in which the human kidney cDNA library described above was used as the template and the following oligo nucleotides 0702F and 0712R, presented as Sequence Number 1 and 2 respectively, were used as the primers. The amplified DNA fragment was ligated into pCR-Blunt (Invitrogen), a vector for cloning, according to standard method of the kit. The Escherichia coli HB101 (Toyobo) was transformed according to usual method and then selection of the transformants was performed on the LB agar medium containing 50 μg/mL of kanamycin. After the plasmid DNA was extracted and purified from the one of the transformants, amplifying of the DNA fragment coding for human SGLT2 was performed by the PCR reaction, in which the following oligo nucleotides 0714F and 0715R, presented as Sequence Number 3 and 4 respectively, were used as the primers. The amplified DNA fragment was digested with restriction enzymes, Xho I and Hind III, and then purified with Wizard Purification System (Promega). This purified DNA fragment was inserted at the corresponding restriction sites of pcDNA3.1 (−) Myc/His-B (Invitrogen), a vector for expressing of fusion protein. The Escherichia coli HB101 was transformed according to usual method and then selection of the transformant was performed on the LB agar medium containing 100 μg/mL of ampicillin. After the plasmid DNA was extracted and purified from this transformant, the base sequence of the DNA fragment inserted at the multi-cloning sites of pcDNA3.1 (−) Myc/His-B was analyzed. […] Sequentially, a clone in which valine is substituted for the isoleucine-433 was obtained. This plasmid vector expressing human SGLT2 in which the peptide presented as Sequence Number 5 is fused to the carboxyl terminal alanine residue was designated KL29.
2) Preparation of the Cells Expressing Transiently Human SGLT2
KL29, the plasmid coding human SGLT2, was transfected into COS-7 cells (RIKEN CELL BANK RCB0539) by electroporation. Electroporation was performed with GENE PULSER II (Bio-Rad Laboratories) under the condition: 0.290 kV, 975 μF, 2×10^6 cells of COS-7 cell and 20 μg of KL29 in 500 μL of OPTI-MEM I medium (Gibco-BRL: LIFE TECHNOLOGIES) in the 0.4 cm type cuvette. After the gene transfer, the cells were harvested by centrifugation and resuspended with OPTI-MEM I medium (1 mL/cuvette). To each well in 96-wells plate, 125 μL of this cell suspension was added. After overnight culture at 37° C. under 5% CO2, 125 μL of DMEM medium which is containing 10% of fetal bovine serum (Sanko Jyunyaku), 100 units/mL sodium penicillin G (Gibco-BRL: LIFE TECHNOLOGIES), 100 μg/mL streptomycin sulfate (Gibco-BRL: LIFE TECHNOLOGIES) was added to each well. After a culture until the following day, these cells were used for the measurement of the inhibitory activity against the uptake of methyl-α-D-glucopyranoside.
3) Measurement of the Inhibitory Activity Against the Uptake of methyl-α-D-glucopyranoside […]

ICR mice = assay: Acute toxicity test; type: in vivo; conditions: male ICR mice, 300 mg/kg subcutaneous, 5 animals in each group, observation for 24 hours
Experimental: A mixture (saline:polyethylene glycol 400:ethanol=5:4:1) was added to a test compound to prepare 30 mg/mL solution. As experimental animals, 5 week old male ICR mice (CLEA JAPAN, INC. 29-35 g, 5 animals in each group), which were fasted for 4 hours, were used. The above solution was subcutaneously administered at a dose of 10 mL/kg (300 mg/kg) to the above experimental animals and then observation for 24 hours was performed.

SD rats = assay: Assay for the facilitatory effect on urinary glucose excretion; type: in vivo, rat; conditions: male SD rats, oral glucose 2 g/kg, urine collected 24 hours
Experimental: Assay for the Facilitatory Effect on Urinary Glucose Excretion
As experimental animals, overnight fasted SD rats (Japan SLC. Inc., male, 7 weeks of age, 180-220 g) were used. Ten mg of a test compound was suspended or dissolved in 300 μL of ethanol and dissolved by adding 1.2 mL of polyethylene glycol 400 and 1.5 mL of saline to prepare a 3.3 mg/mL solution. A portion of this solution was diluted with a mixture (saline:polyethylene glycol 400:ethanol=5:4:1) to prepare 3.3, 0.33 and 0.033 mg/mL solution. After body weights of the rats were measured, the solution of test compound was intravenously injected to the tail vein at a dose of 3 mL/kg (10, 1, 0.1 mg/kg). For control, only a mixture (saline:polyethylene glycol 400:ethanol=5:4:1) was intravenously injected to the tail vein at a dose of 3 mL/kg. Immediately after intravenous injection to the tail vein, 200 g/L of aqueous glucose solution was orally administered to the rats at a dose of 10 mL/kg (2 g/kg). The intravenous injection to the tail vein was performed with 26 G injection needle and 1 mL syringe. The oral administration was performed with gastric tube for rat and 2.5 mL syringe. The head count in each group was 3. Collection of urine was performed in metabolic cage after the administration of glucose was finished. The sampling time for collection of urine was 24 hours after the administration of glucose. After the collection of urine was finished, the urine volume was recorded and the urinary glucose concentration was measured. The glucose concentration was measured with a kit for laboratory test: Glucose B-Test WAKO (Wako Pure Chemical Industries, Ltd.). The amount of urinary glucose excretion during 24 hours per 200 g of body weight was calculated from the urine volume, urinary glucose concentration and body weight.

| SMILES | IC50 (human SGLT2) [nM] | Death number (ICR mice) | Amount of Urinary Glucose Excretion (SD rats; 0.1 mg/kg intravenous) | Amount of Urinary Glucose Excretion (SD rats; 1 mg/kg intravenous) | Amount of Urinary Glucose Excretion (SD rats; 10 mg/kg intravenous) |
| --- | --- | --- | --- | --- | --- |
| OC/C=C/c1ccc(Cc2ccccc2O[C@@H]2O[C@H](CO)[C@@H](O)[C@H](O)[C@H]2O)cc1 [Example 19, (E)-2-[4-(3-hydroxy-1-prop-1-ene-1-yl)benzyl]phenyl β-D-glucopyranoside] | 120 | – | – | – | – |
| COc1ccc(Cc2c(C)cc(C)cc2O[C@@H]2O[C@H](CO)[C@@H](O)[C@H](O)[C@H]2O)cc1 [Example 37, 2-(4-Methoxybenzyl)-3,5-dimethylphenyl β-D-glucopyranoside] | 290 | 0/5 | 15 mg/24 hours/200 g body weight | 125 mg/24 hours/200 g body weight | 288 mg/24 hours/200 g body weight |

Further lines, with some results ahead:

| IC50 (human SGLT2) [nM] | SMILES | Death number (ICR mice) | Amount of Urinary Glucose Excretion (SD rats; 0.1 mg/kg intravenous) | Amount of Urinary Glucose Excretion (SD rats; 1 mg/kg intravenous) | Amount of Urinary Glucose Excretion (SD rats; 10 mg/kg intravenous) |
| --- | --- | --- | --- | --- | --- |
| 10 | CCc1ccc(Cc2ccc(N)cc2O[C@@H]2O[C@H](CO)[C@@H](O)[C@H](O)[C@H]2O)cc1 [Example 29, 5-Amino-2-(4-ethylbenzyl)phenyl β-D-glucopyranoside] | – | – | – | – |
| 30 | Cc1cc(C)c(Cc2ccc(CCCO)cc2)c(O[C@@H]2O[C@H](CO)[C@@H](O)[C@H](O)[C@H]2O)c1 [Example 30, 2-[4-(3-Hydroxypropyl)benzyl]-3,5-dimethylphenyl β-D-glucopyranoside] | – | – | – | – |
| 59 | Cc1cc(C)c(Cc2ccc(CCO)cc2)c(O[C@@H]2O[C@H](CO)[C@@H](O)[C@H](O)[C@H]2O)c1 [Example 31, 2-[4-(2-Hydroxyethyl)benzyl]-3,5-dimethylphenyl β-D-glucopyranoside] | – | – | – | – |

From patent US20050113315A1, “Glucopyranosyloxybenzylbenzene derivatives, medicinal compositions containing the same and intermediates in the production thereof” (KISSEI PHARMACEUTICAL CO., LTD., priority 2000, published 2005)
